# In patent US10858360B2, “Tricyclic gyrase inhibitors” (priority 2011, dated 2020):
# Assays:
# E. coli ATCC 25922 = test: MIC, E. coli ATCC 25922; type: cell-based; conditions: Alamar Blue read after overnight incubation at 35° C.; for MIC: Escherichia coli, ATCC25922, E. coli; for MIC Ec: E. coli
# S. aureus ATCC 13709 = test: MIC, S. aureus ATCC 13709 (Alamar Blue broth microdilution); type: cell-based; conditions: Alamar Blue read after overnight incubation at 35° C.; for MIC: Staphylococcus aureus, ATCC13709, S. aureus; for MIC Sa: S. aureus
Compound,MIC (E. coli ATCC 25922),MIC (S. aureus ATCC 13709),MIC Ec (E. coli ATCC 25922),MIC Sa (S. aureus ATCC 13709)
CNc1cc(F)cc2c1[nH]c1nc(Oc3cnc(N)nc3)nc(N3CC4CNC4C3)c12 (centres unmarked) [4.178],8 µg/mL,≤ 0.5 µg/mL,,
CNc1cc(F)cc2c1[nH]c1nc(Oc3cnc4c(c3)C(=O)N(C)C4)nc(N3CC4C[C@@H](N)C4C3)c12 (some centres unmarked) [4.359],≤ 0.5 µg/mL,≤ 0.5 µg/mL,,
CNc1cc(F)cc2c1[nH]c1nc(Oc3cncc([S+](C)[O-])c3)nc(N3CC4C(N)C4C3)c12 (centres unmarked) [4.351],,,2 µg/mL,≤0.5 µg/mL
CNc1cccc2c1[nH]c1nc(Sc3cnc4cccnc4c3)nc(N3CCC(C(O)c4cccs4)CC3)c12 (centres unmarked) [1.70],> 32 µg/mL,1 µg/mL,,
CNc1cc(F)cc2c1[nH]c1nc(Oc3cnc4cccnc4c3)nc(N3CC[C@@]4(C[C@H]4N)C3)c12 [4.041],1 µg/mL,≤ 0.5 µg/mL,,
CNc1cc(F)cc2c1[nH]c1nc(Oc3ccc4sc(C)nc4c3)nc(N3CC4CCC(N)C4C3)c12 (centres unmarked) [4.322],,,≤0.5 µg/mL,≤0.5 µg/mL
CNc1cccc2c1[nH]c1nc(Sc3cnc4cccnc4c3)nc(N3CCC(CO)C3)c12 (centres unmarked) [1.53],8 µg/mL,≤ 0.5 µg/mL,,
CNc1ccc(C)c2c1[nH]c1nc(Sc3cnc4cccnc4c3)nc(N3CC4C(N)C4C3)c12 (centres unmarked) [1.58],8 µg/mL,≤ 0.5 µg/mL,,
CNc1c(F)ccc2c1[nH]c1nc(Oc3cnc(C)nc3)nc(N3CC[C@@H](N)C3)c12 [6.01],1 µg/mL,≤ 0.5 µg/mL,,
CNc1cccc2c1[nH]c1nc(Oc3cncnc3)nc(N3CC4CC4(N)C3)c12 (centres unmarked) [3.1],4 µg/mL,1 µg/mL,,
CNc1cccc2c1[nH]c1nc(Sc3cnc4cccnc4c3)nc(N3CCC(CN)C3)c12 (centres unmarked) [1.48],2 µg/mL,≤ 0.5 µg/mL,,
CNc1cc(F)cc2c1[nH]c1nc(Oc3cnc(C)nc3)nc(N3CC4CCC(CN)C4C3)c12 (centres unmarked) [4.112],,,1 µg/mL,≤0.5 µg/mL
CNc1cc(F)cc2c1[nH]c1nc(Oc3cnc4c(ccn4C)c3)nc(N3CC4CC(N)C4C3)c12 (centres unmarked) [4.328],1 µg/mL,≤ 0.5 µg/mL,,
CNc1cc(F)cc2c1[nH]c1nc(Oc3cnc4cccnc4c3)nc(N3C[C@@H]4[C@H](C3)[C@@]4(N)C(N)=O)c12 [4.039],2 µg/mL,≤ 0.5 µg/mL,,
CNc1cc(F)cc2c1[nH]c1nc(Oc3cnc(C)nc3)nc(N3CC4C(CN)C4C3)c12 (centres unmarked) [4.106],,,2 µg/mL,≤0.5 µg/mL
CNc1cccc2c1[nH]c1nc(Sc3cnc4cccnc4c3)nc(N3CCN(C(=O)C4CCCO4)CC3)c12 (centres unmarked) [1.69],8 µg/mL,≤ 0.5 µg/mL,,

Compound,MIC (E. coli ATCC 25922),MIC (S. aureus ATCC 13709),MIC Ec (E. coli ATCC 25922),MIC Sa (S. aureus ATCC 13709)
Cc1ncc(Oc2nc(N3C[C@H](N)C4(CC4)C3)c3c(n2)[nH]c2c(N(C)C(=O)CN)cc(F)cc23)cn1 [4.426],> 16 µg/mL,8 µg/mL,,
CNc1cc(F)cc2c1[nH]c1nc(Oc3cncc(-c4nnnn4C)c3)nc(N3CC4CC(N)C4C3)c12 (mixture of isomers) [4.171],,,4 µg/mL,≤0.5 µg/mL
CNc1cc(F)cc2c1[nH]c1nc(Oc3cncc(Cl)c3)nc(N3CC4C[C@@H](N)C4C3)c12 (some centres unmarked) [4.274],≤ 0.5 µg/mL,≤ 0.5 µg/mL,,
CNc1cc(F)cc2c1[nH]c1nc(Oc3cnc(N4CCOCC4)nc3)nc(N3CCC(N)C3)c12 (centres unmarked) [4.212],,,≤0.5 µg/mL,≤0.5 µg/mL
CNc1cccc2c1[nH]c1nc(Sc3cnc4ccc[n+]([O-])c4c3)nc(N3C[C@@H]4[C@H](C3)[C@@]4(N)C(N)=O)c12 [1.19],> 64 µg/mL,> 64 µg/mL,,
CNc1cc(F)cc2c1[nH]c1nc(Oc3cnc(CC(=O)NOC)nc3)nc(N3CC(N)C4(CC4)C3)c12 (centres unmarked) [4.371],,,16 µg/mL,1 µg/mL
Cc1ncc(Oc2nc(N3CC4CC3C[C@@H]4N)c3c(n2)[nH]c2c(N)cc(F)cc23)cn1 (some centres unmarked) [2.160],16 µg/mL,8 µg/mL,,
CNc1cccc2c1[nH]c1nc(Oc3cncnc3)nc(Oc3cncnc3)c12 [3.37],> 64 µg/mL,2 µg/mL,,
CNc1cc(F)cc2c1[nH]c1nc(Oc3cnc(C)nc3)nc(N3CC(NC(=O)CN)C4(CC4)C3)c12 (centres unmarked) [4.085],,,2 µg/mL,≤0.5 µg/mL
Cc1ncc(Oc2nc(N3C[C@H](NC(=O)CN)C4(CC4)C3)c3c(n2)[nH]c2c(N(C)C(=O)CN)cc(F)cc23)cn1 [4.427],> 16 µg/mL,> 16 µg/mL,,
CNc1cc(F)cc2c1[nH]c1nc(Oc3cnc(C)nc3)nc(-c3ccc(F)cc3CN)c12 [4.420],> 16 µg/mL,2 µg/mL,,
CNc1cc(F)cc2c1[nH]c1nc(Oc3ccc4nc5n(c(=O)c4c3)CCC5)nc(N3CC4C[C@@H](N)C4C3)c12 (some centres unmarked) [4.376],> 16 µg/mL,> 16 µg/mL,,
CNc1cc(F)cc2c1[nH]c1nc(Oc3cncc(C(N)=O)c3)nc(N3CC4CC(N)C4C3)c12 (centres unmarked) [4.239],,,8 µg/mL,≤0.5 µg/mL
CNc1cc(F)cc2c1[nH]c1nc(Oc3cnc(C)nc3)nc(N3CC4C(N)CC4(C)C3)c12 (centres unmarked) [4.150],,,1 µg/mL,≤0.5 µg/mL
CNc1cccc2c1[nH]c1nc(Sc3cnc4ccc[n+]([O-])c4c3)nc(N3CC4CC3CN4)c12 (centres unmarked) [1.57],> 32 µg/mL,> 32 µg/mL,,
